# Test results published in PMC13327620, “A Deep‐Red‐Absorbing Osmium(II) Complex as a Photosensitizer for Photodynamic Therapy Inducing Immunogenic Cell Death” (Angewandte Chemie (International Ed. in English), 2026).
# Tests used:
# CT26 cells = assay: ICD in vitro, summary of the three hallmarks; type: cell-based, mouse
# Method: A weak ICD was present in cells treated with 6.12 µM Os2 in the dark (limited translocation of CRT) and Ce6‐treated cells under 770 nm light (partial release of HMGB‐1).
# CT26‐luc cells = assay: In vivo vaccination and rechallenge, CT26-luc model; parameters: species or system BALB/c mice
# Method: The ability to stimulate ICD in vivo was evaluated using a CT26‐luc vaccination and rechallenge model, following the gold‐standard method (Figure 5A). The mice were randomly assigned to groups and injected subcutaneously on the left flank with PBS solution, CT26‐luc cells pre‐treated with either 600 µM Cisplatin in the dark, 6.5 µM Ce6, or 1.8 µM Os2 upon 740 nm LED light irradiation (60 min, 12.6 J cm^−2). After 7 days, all the mice were rechallenged by subcutaneous injection of untreated live CT26‐luc cells on the right flank. […] However, by day 15, tumors in the PBS‐treated (control) group grew rapidly, reaching an average tumor volume of 717 ± 190 mm^3.
# The BALB/c female mice were randomly divided into 4 groups with each group containing 5 mice, which were named as Control group, Cisplatin group, Ce6 group and Os2 group. CT26-luc cells wer e treat ed in vitro with 600 µM Cisplatin in the dark, 6.5 µM Ce6 or 1.8 µM Os2 upon 740 nm LED light irradiation (60 min, 12.6 J cm-2) following the methods described above. Subsequently, treated CT26-luc cells (3×10^5 cells in 100 µ L sterile PBS) or 100 µ L sterile PB S were injected subcutaneously into the left flank of each mouse. One week later, mice were r echalleng ed by injection with untreated CT26- luc cells (1×10^6 cells in 100 µL sterile PBS). The mice were monitored by an in vivo imaging system (Biospace Lab, Photon Imager Optima) and the tumor volume was calculated with the following equation: tumor volume = width 2 × length × […]
# In vivo vaccination study on MCA205 cells
# The C57BL/6 mice were randomly divided into 5 groups with each group containing 10 mice, whi ch w ere nam ed as Control group, Cisplatin group, Oxaliplatin group, Ce6 group and Os2 group. M CA205 cells were treated in vitro with 500 µM Cisplatin o r 1400 µM Oxaliplatin in the dark, 5.5 µM Ce6 or 3 µM Os2 upon 740 nm LED light irradiation (60 min, 12.6 J cm-2) following the methods described above. […] The tumor volume was calculated with the following equation: tumor volume =
# MCA205 cells = assay: Annexin V-FITC/propidium iodide (AV/PI) cell viability assay by flow cytometry; type: cell-based, mouse; conditions: MCA205, 740 nm LED light illumination
# From the text: Regarding the optimal dose of each drug for in vivo vaccination, we continued to follow the same standards as with CT26‐luc cells, using the concentration of each drug that results in approximately 5% of live cells as the in vivo dose. The testing method remained the same, using the AV/PI dual staining assay. Negative controls still included the untreated group (direct injection of PBS solution) and the non‐ICD inducer Cisplatin. Based on the in vitro HMGB‐1 release results, Ce6 was maintained as the positive control. For a more comprehensive comparison, we also added the platinum‐based chemotherapeutic agent Oxaliplatin as a non‐PS ICD inducer, serving as an additional positive control.
# As the drug concentration increased, the cells gradually shifted to dying (Q3, Annexin V^+/PI^−) or dead (Q2, Annexin V^+/PI^+ and Q1, Annexin V^−/PI^+) state. For MCA205 cells, the concentrations corresponding to approximately 5% cell survival for each drug were 500 µM Cisplatin and 1400 µM Oxaliplatin in the dark, 5.5 µM Ce6 and 3 µM Os2 under 740 nm LED light illumination. […]
# incubated for 24 h. Cells were then treat ed with the determined IC50 of complexes and irradiated or kept in the dark. Supernatants were collected 12 h post-t reatm ent, and the extracellular ATP content was measured with Adenosine 5′ -triphosphate (ATP) Bioluminescent Assay Kit (Sigma-Aldrich) according tomanufacturer ’s ins truction.
# Cell viability assay f o r in vivo by flow cytometry
# CT26-luc or MCA205 cells were seeded in 6-well plates at a density of 1 ×1 05 cells per well and cultured for 24 h at 37 °C with 5% CO 2. The medium was replaced by various concentrations of the compound dilutions in fresh medium.For Ce6 and Os2, after 4 h incubation in the dark, the medium w as r efr eshed and the plates wer e illuminated with a LUMOS-BIO photoreactor (Atlas Photonics), followed by an additional 20- h incubation in the dark. […]
# 556419) and PI (BD Biosciences, Catalog no.51- 66211E). CT26- luc cells were analyzed by flow cytometry (Beckm an Coulter Life Sciences, CytoFLEX LX Flow Cytometer). […]
structure (smiles),measurement,setting,value
"C=Cc1c(C)c2cc3nc(c(CC(=O)O)c4[nH]c(cc5nc(cc1[nH]2)C(C)=C5CC)c(C)c4C(=O)O)[C@@H](CCC(=O)O)[C@@H]3C [Ce6, chlorin e6]",ICD (all three hallmarks),"CT26 cells; CT26, 770 nm light",weak ICD
same,ICD (all three hallmarks),"CT26 cells; CT26, illumination at 740 nm",strong ICD
same,Mice with tumors completely ablated,"CT26‐luc cells; by day 40, n = 5 per group",one mouse
same,"Tumor volume, times smaller than control group","CT26‐luc cells; day 15 after rechallenge, vaccination with CT26‐luc cells pre-treated with 6.5 µM Ce6 or 1.8 µM Os2 + 740 nm",1.7
same,Survival,"CT26‐luc cells; up to 40 days after rechallenge, compared to the other groups",prolonged survival periods
same,Concentration corresponding to approximately 5% cell survival,MCA205 cells,5.5 µM
